Measurements taken from PMC12903969, “Discovery of a Novel and Potent Kir4.1 Inhibitor as a Safe and Rapid‐Onset Antidepressant Agent in Mice” (Advanced Science, 2025).
Values joined by “and” are separate entries in the source; they are usually repeats but may differ in a detail not shown here. Equal values may be shown once. Read-outs that look alike come from different tables or passages of the source.

Assays:
[1] = target: T1, GluN1/GluN2B NMDA receptor (Homo sapiens, UniProt Q05586+Q13224); test: Patch clamp of GluN1/GluN2B NMDA receptors in stable HEK293T cells; assay type: cell-based
T1 construct: expressed in transfected cells
T1 sequence (Q13224 27-1484, other chains not shown): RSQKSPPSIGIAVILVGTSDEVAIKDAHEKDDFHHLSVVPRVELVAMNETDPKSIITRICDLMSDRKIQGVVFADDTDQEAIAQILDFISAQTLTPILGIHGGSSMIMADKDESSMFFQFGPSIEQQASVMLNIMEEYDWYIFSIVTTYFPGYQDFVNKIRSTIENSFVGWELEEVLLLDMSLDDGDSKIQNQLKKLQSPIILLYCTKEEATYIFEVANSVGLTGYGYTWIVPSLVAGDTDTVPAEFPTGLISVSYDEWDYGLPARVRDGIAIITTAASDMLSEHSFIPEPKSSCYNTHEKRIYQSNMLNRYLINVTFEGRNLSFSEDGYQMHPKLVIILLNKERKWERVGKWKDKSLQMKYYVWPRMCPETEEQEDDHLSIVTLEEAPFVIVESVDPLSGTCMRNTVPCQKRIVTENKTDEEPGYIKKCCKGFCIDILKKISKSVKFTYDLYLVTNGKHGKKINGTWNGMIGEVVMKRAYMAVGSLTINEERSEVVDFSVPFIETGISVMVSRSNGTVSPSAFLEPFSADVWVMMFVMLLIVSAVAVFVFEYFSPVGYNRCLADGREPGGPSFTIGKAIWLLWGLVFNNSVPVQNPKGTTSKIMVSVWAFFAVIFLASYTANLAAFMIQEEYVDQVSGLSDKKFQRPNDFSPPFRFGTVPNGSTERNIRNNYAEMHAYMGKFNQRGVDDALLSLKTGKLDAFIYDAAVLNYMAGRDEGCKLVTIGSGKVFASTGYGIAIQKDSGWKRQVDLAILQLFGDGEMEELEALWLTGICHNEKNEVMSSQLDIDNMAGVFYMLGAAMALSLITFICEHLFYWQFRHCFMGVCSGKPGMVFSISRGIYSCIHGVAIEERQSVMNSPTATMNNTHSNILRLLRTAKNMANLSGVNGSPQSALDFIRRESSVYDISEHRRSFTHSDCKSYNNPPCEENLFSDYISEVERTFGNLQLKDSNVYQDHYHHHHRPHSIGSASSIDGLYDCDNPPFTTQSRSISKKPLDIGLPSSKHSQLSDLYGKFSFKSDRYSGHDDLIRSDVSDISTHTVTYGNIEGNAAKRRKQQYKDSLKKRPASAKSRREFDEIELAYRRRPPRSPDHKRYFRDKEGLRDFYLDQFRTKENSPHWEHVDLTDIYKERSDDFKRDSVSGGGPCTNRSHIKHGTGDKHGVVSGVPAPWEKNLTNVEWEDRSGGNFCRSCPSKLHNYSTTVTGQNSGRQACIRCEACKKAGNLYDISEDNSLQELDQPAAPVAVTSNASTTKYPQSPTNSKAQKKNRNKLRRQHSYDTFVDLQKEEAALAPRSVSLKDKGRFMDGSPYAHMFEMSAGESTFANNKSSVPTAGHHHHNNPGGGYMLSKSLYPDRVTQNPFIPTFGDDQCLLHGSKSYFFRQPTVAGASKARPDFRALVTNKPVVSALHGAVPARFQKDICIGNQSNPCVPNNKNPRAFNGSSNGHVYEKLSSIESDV
Source text: For recording of GluN1/GluN2B NMDA receptors, HEK293T cells stably expressing GluN1 and GluN2B subunits were voltage‐clamped at −60 mV. […] The pipette solution contained (in mM):115 CsF, 10 CsCl, 10 HEPES and 10 BAPTA (pH 7.2 adjusted by CsOH). The bath solution contained (in mM): 140 NaCl, 2.8 KCl, 1 CaCl2, 10 HEPES and 20 sucrose (pH 7.4 adjusted with NaOH).

KCNQ2 = KCNQ2 (Homo sapiens, UniProt O43526); test: KCNQ2 channel inhibition; assay type: cell-based; parameters: KCNQ2 inhibition, single recordings: unit not given here
Source text: (§1) Whole‐cell patch‐clamp recordings were obtained either in transiently transfected CHO‐K1 cells or in primary cultured astrocytes at room temperature using standard patch‐clamp techniques with an Axopatch‐700B amplifier (Axon Instruments). The signals were filtered at 2 kHz and sampled at 20 kHz using the Digidata 1440A interface (Axon Instruments). The resistance of borosilicate glass pipettes was typically 2–4 MΩ when filled with the internal solution. Drug application was facilitated using a BPS perfusion system (ALA Scientific Instruments). Macroscopic currents generated by expressed potassium channels were recorded under the voltage‐clamp conditions with an internal pipette solution composed of (in mM): 140 KCl, 5 NaCl, 1 CaCl2, 1 MgCl2, 10 HEPES, and 10 EGTA, pH 7.2 adjusted with KOH. The external solution contained (in mM): 140 NaCl, 5 KCl, 2 CaCl2, 1 MgCl2, 10 glucose, and 10 HEPES, pH 7.4 adjusted with NaOH. Currents were elicited with a hyperpolarized voltage at −120 mV from the holding potential of −80 mV, followed by a ramp voltage depolarizing to +50 mV. Astrocytic resting membrane potentials were recorded under current‐clamp conditions (I = 0 pA) using standard internal and external solutions, determined immediately after achieving whole‐cell mode.

mice = test: Repeat-dose (14-day subacute) toxicity study
Protocol: The mice received daily treatments for 14 consecutive days and were monitored once daily for signs of toxicity. Individual body weights were measured daily throughout the observation period. At the end of this period, all mice were sacrificed and dissected. Macroscopic evaluation was performed, and the heart, liver, spleen, lungs, kidneys, and brain were excised for relative weight calculations. Representative organ fragments were embedded in formalin and paraffin, then fixed for subsequent histopathological analysis. Serum biochemical analyses included determination of creatinine, urea, alanine aminotransferase, and aspartate aminotransferase.

Kir4.1 T162A = target: T2, Kir4.1 T162A (Homo sapiens, UniProt P78508, T162A); test: Whole-cell patch clamp, Kir4.1 point mutant T162A; assay type: cell-based; settings: JX3212 3 µM (Fig 2D)
T2 construct: expressed in transfected cells; host or cells: CHO-K1
T2 sequence (P78508 whole entry T162A): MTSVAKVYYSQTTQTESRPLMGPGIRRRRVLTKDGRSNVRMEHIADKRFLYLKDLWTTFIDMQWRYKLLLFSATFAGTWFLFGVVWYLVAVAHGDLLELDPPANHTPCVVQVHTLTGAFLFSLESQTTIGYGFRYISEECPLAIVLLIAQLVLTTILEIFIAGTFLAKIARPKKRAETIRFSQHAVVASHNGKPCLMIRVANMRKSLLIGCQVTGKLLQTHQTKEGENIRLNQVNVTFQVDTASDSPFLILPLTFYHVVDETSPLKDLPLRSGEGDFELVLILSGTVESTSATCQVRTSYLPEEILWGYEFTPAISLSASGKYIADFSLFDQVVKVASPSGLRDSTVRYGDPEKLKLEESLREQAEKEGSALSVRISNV
Protocol: (§2) Plasmids encoding WT human potassium channels Kir1.1, Kir2.1, Kir2.2, Kir4.1, and Kir4.2 were obtained from the Beijing Genomics Institute. All point mutations were constructed using the QuickChange II Site‐Directed Mutagenesis Kit (Stratagene) and subsequently verified by sequencing.
CHO‐K1 cells were maintained in DMEM/F12 growth medium containing 10% fetal bovine serum. Plasmids encoding the target genes (3600 ng) and enhanced green fluorescent protein (400 ng) were cotransfected into cells using Lipofectamine 2000 (Invitrogen) in accordance with the manufacturer's instructions. Cells were seeded onto poly‐d‐lysine (PDL)‐coated glass coverslips 1 h prior to electrophysiological recordings. […]
Whole‐cell patch‐clamp recordings were obtained either in transiently transfected CHO‐K1 cells or in primary cultured astrocytes at room temperature using standard patch‐clamp techniques with an Axopatch‐700B amplifier (Axon Instruments). […] Macroscopic currents generated by expressed potassium channels were recorded under the voltage‐clamp conditions with an internal pipette solution composed of (in mM): 140 KCl, 5 NaCl, 1 CaCl2, 1 MgCl2, 10 HEPES, and 10 EGTA, pH 7.2 adjusted with KOH. […] Astrocytic resting membrane potentials were recorded under current‐clamp conditions (I = 0 pA) using standard internal and external solutions, determined immediately after achieving whole‐cell mode.

Kir4.1 T128A = target: T3, Kir4.1 T128A (Homo sapiens, UniProt P78508, T128A); test: Whole-cell patch clamp, Kir4.1 point mutant T128A; assay type: cell-based
T3 construct: expressed in transfected cells; host or cells: CHO-K1
T3 sequence (P78508 1-379 T128A): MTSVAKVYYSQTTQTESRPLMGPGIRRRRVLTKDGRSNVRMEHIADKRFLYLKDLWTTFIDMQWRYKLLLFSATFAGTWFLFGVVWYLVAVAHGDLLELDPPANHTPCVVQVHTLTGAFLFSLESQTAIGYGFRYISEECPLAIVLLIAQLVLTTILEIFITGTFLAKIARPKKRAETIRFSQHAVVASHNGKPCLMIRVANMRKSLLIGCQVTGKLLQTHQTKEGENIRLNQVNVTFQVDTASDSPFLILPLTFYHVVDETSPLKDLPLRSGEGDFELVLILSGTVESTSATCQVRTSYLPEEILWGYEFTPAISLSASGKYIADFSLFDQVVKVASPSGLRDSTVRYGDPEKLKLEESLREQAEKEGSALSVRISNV
Protocol: as §2
CHO‐K1 cells were maintained in DMEM/F12 growth medium containing 10% fetal bovine serum. Plasmids encoding the target genes (3600 ng) and enhanced green fluorescent protein (400 ng) were cotransfected into cells using Lipofectamine 2000 (Invitrogen) in accordance with the manufacturer's instructions. Cells were seeded onto poly‐d‐lysine (PDL)‐coated glass coverslips 1 h prior to electrophysiological recordings. All cells were cultured under standard conditions of 5% CO2 at 37 °C.
as §1

[2] = 100 mg/kg, 14-day, individual animals
[3] = organ weight index, 100 mpk, 14-day, individual animals, 100 mg/kg

`c1ccc2c(c1)oc1ccc(Nc3ccnc(NCCCN4CCOCC4)n3)cc12` [JX3212, N^4-(dibenzo[b,d]furan-2-yl)-N^2-(3-morpholinopropyl)pyrimidine-2,4-diamine] was tested, and the IC50 [1] was 23.7 µM, the “GLUN1/N2B inhibition, single recordings” value ([1]; concentration 10) was 16.1554 and 31.4381 and 16.8072 and 24.8566 and the “GLUN1/N2B inhibition, single recordings” value ([1]; concentration 30) was 75.9494 and 77.336 and 42.6087. The “GLUN1/N2B inhibition, single recordings” value ([1]; concentration 50) was 84.1069 and 85.4244 and 96.0913, the “GLUN1/N2B inhibition, single recordings” value ([1]; concentration 100 (unit not given)) was 91.8425 and 90.7749 and 99.6717 and 97.1777 and the “GLUN1/N2B inhibition, single recordings” value ([1]; concentration 300μ) was 98.8477 and 99.3957 and 98.8626. For the same compound, the IC50 (KCNQ2) was 5.99 µM, the “KCNQ2 inhibition, single recordings” value (KCNQ2; concentration 3) was 22.0588 and 21.8921 and 13.4681 and the “KCNQ2 inhibition, single recordings” value (KCNQ2; concentration 10) was 79.5346 and 67.5255 and 78.5615. The “KCNQ2 inhibition, single recordings” value (KCNQ2; concentration 30 (unit not given)) was 97.6879 and 84.1578 and 95.4545, the “histomorphology of liver, spleen, kidneys, HE staining (in words)” value (mice; 100 mg kg−1 i.p., 14 days) was “no pronounced pathological changes” and the “serum creatine level (in words)” value (mice; 100 mg kg−1 i.p., 14 days) was “slight decrease in creatine levels”. For the same compound, the “mortality, body weight, organ-to-body weight ratio (in words)” value (mice; 100 mg kg−1 i.p., 14 days, n = 6) was “No mortality or significant changes in body weight”, the ALT (mice; [2]) was 24 and 28 and 22 and 33 and 30 and 36 and the AST (mice; [2]) was 77 and 98 and 90 and 81. For the same compound, the Cr (mice; [2]) was 23 and 24 and 31 and 22, the Body weight (mice; 100 mpk, day 1, individual animals) was 24.7 and 25 (2×) and 25.5 and the Body weight (mice; 100 mpk, day 2, individual animals) was 24.3 and 25 and 24.7 and 23.4 (2×) and 24.2. For the same compound, the Body weight (mice; 100 mpk, day 3, individual animals) was 25 (2×) and 23.6 and 23.7 and 24.2 and 23.8, the Body weight (mice; 100 mpk, day 4, individual animals) was 23.4 and 25 and 24.7 and 25.4 and 24 (2×) and the Body weight (mice; 100 mpk, day 5, individual animals) was 25 and 23.3 and 24.7 (2×) and 25.4. The Body weight (mice; 100 mpk, day 6, individual animals, in g (unit assumed)) was 24.7 and 23.4 and 25 and 25.8 and 24.4, the Body weight (mice; 100 mpk, day 7, individual animals, in g (unit assumed)) was 25.1 and 23.1 and 25.2 and 25.3 and 23.9 and 24.5 and the Body weight (mice; 100 mpk, day 8, individual animals) was 24.6 (2×) and 23.2 and 24 and 24.9 and 22.8. For the same compound, the Body weight (mice; 100 mpk, day 9, individual animals) was 23.2 and 23 and 24.8 (2×) and 23.5 and 25, the Body weight (mice; 100 mpk, day 10, individual animals, in g (unit assumed)) was 23.6 and 22.9 and 24.4 and 24.1 and the Body weight (mice; 100 mpk, day 11, individual animals, in g (unit assumed)) was 24.4 and 23.3 and 23.8. For the same compound, the Body weight (mice; 100 mpk, day 12, individual animals, in g (unit assumed)) was 24.4 and 23.7 and 24.2 and 23.3, the Body weight (mice; 100 mpk, day 13, individual animals) was 24.3 and 24.1 (2×) and 23.6 and 25.7 and 23.4 and the Body weight (mice; 100 mpk, day 14, individual animals, in g (unit assumed)) was 24.1 and 23.8 and 26.2 and 24.4 and 22.9 and 24. The Brain (mice; [3]) was 1.903 and 1.921 and 1.682 and 2.001 and 1.79 and 1.878, the Heart (mice; [3]) was 0.4606 and 0.4848 and 0.4887 and 0.4129 and 0.4371 and 0.4527 and the Kidney (mice; [3]) was 1.532 and 1.538 and 1.4509 and 1.426 and 1.403 and 1.554. The Liver (mice; [3]) was 6.39 and 5.873 and 5.169 and 5.3375 and 6.082 and 6.251, the Lung (mice; [3]) was 0.6629 and 0.6646 and 0.5455 and 0.5464 and 0.7241 and 0.5883 and the Spleen (mice; [3]) was 0.4787 and 0.4556 and 0.409 and 0.4522 and 0.473 and 0.3725. For the same compound, the “Mutation: T162A inhibition, single recordings” value (Kir4.1 T162A) was 80.9735 and 73.6489 and 64.6435 and 83.1492 and 87.0339, the inhibition at 3 µM (Kir4.1 T128A; 3 µM, mean ± SEM, read-out: current inhibition, Kir4.1 T128A) was 33.9 ± 4.58% and the “Mutation: T128A inhibition, single recordings” value (Kir4.1 T128A; JX3212 3 µM (Fig 2D)) was 37.4256 and 28.9608 and 38.1757. It also gave an inhibition at 3 µM (Kir4.1 T128A; JX3212 3 µM (Fig 2D), read-out: Mutation: T128A inhibition, single recordings) of 31.1%.
